According to US20250127918A1, “SITE-SELECTIVE CONJUGATION OF A PHARMACEUTICAL AGENT TO AN ANTIBODY USING AN AFFINITY PEPTIDE” (priority 2023, published 2025):

What was measured:
Assay type in all cases: in vivo, mouse
WT Swiss mice [1] = assay: Toxicity / safety profile of GLP1 conjugates in WT Swiss mice
Experimental: All animal experiments were performed under an MIT institute approved IACUC protocol following federal, state, and local guidelines for the care and use of animals (protocol number #0821-058-24). The studies were performed on 30-35 g (5-8 weeks-old) healthy female Swiss mice, purchased from The Jackson Laboratory (MA, USA). Mice were housed with free access to food and water ad libitum unless stated otherwise for the need of the experiment. […] Intraperitoneal injections (IP) were performed on vigil mice, in the lower right abdominal quadrant. For blood collection, mice were either punctured in the heart (terminal procedure), or gently pressed at the tail following tail pricks (vigil). […] The animals were sacrificed by CO2 inhalation followed by cervical dislocation. All compounds injected in mice were either USP grade, sterile, or filtered using 0.22 μm.
(§1) Six hours before the Ip-GTT, the mice were fasted by removing the food, the enrichment, and by placing them in a new cage to avoid coprophagy. Access to water was, however kept free and ad libitum for the entire experiment. Five minutes before the Ip-GTT, basal glycemia was measured by taking a small drop of blood using tail pricks.
In the other cohorts, 2a,3a was SC administered following either 10 mg/kg (25 nmol), 30 mg/kg (75 nmol), or three injections of 10 mg/kg, 1 per week for 3 weeks (30 mg/kg total, 75 nmol total).
(§2) All animal experiments were performed under an MIT institute approved IACUC protocol following federal, state, and local guidelines for the care and use of animals (protocol number #0821-058-24). The studies were performed either on 35-45 g (12-16 weeks-old) wild-type female Swiss mice, 25-30 g (14-20 weeks-old) male and female C57BL/6J mice, or 55-70 g (16 weeks-old) male and female obese Lep^ob/ob mice, all purchased from The Jackson Laboratory (MA, USA). Mice were housed with free access to normal food diet and water ad libitum unless stated otherwise for the need of the experiment. […] Intraperitoneal injections (IP) were performed on non-anesthetized mice, in the lower right abdominal quadrant. Blood collection for the ELISA assays and biodistributions was performed as a terminal procedure by heart puncture immediately after the sacrifice. For Ip-GTT and Ip-ITT mice were restrained and gently pressed at the tail following tail pricks. The animals were sacrificed by CO2 inhalation followed by cervical dislocation. All compounds injected in mice were either USP grade, sterile, or filtered using 0.22 μm.

Lep^ob/ob mice = assay: Safety profile of GLP-1a conjugates in Lep^ob/ob mice; conditions: 10 mg/kg; for Number of mice showing significant aggressiveness / Number of mice with Piloerection, Moderate: cohort of 3 mice
Experimental: In Lep^ob/ob obese mice, two routes were assessed for the 10 mg/kg dose: SC and IP (Table 21). […] Investigations about the PD of 2a,3a following SC injection of 10 mg/kg were pursued in both mice models.
as §2

WT Swiss mice [2] = assay: Intraperitoneal glucose tolerance test (Ip-GTT) in WT Swiss mice; conditions: Ip-GTT after injection
Experimental: as §1

SMILES: CC[C@H](C)[C@H](NC(=O)[C@H](Cc1ccccc1)NC(=O)[C@H](CCC(=O)O)NC(=O)[C@H](CCCCNC(=O)COCCOCCNC(=O)COCCOCCNC(=O)CC[C@H](NC(=O)CCCCCCCCCCCCCCCCC(=O)O)C(=O)O)NC(=O)[C@H](C)NC(=O)[C@H](C)NC(=O)[C@H](CCC(N)=O)NC(=O)CNC(=O)[C@H](CCC(=O)O)NC(=O)[C@H](CC(C)C)NC(=O)[C@H](Cc1ccc(O)cc1)NC(=O)[C@H](CO)NC(=O)[C@H](CO)NC(=O)[C@@H](NC(=O)[C@H](CC(=O)O)NC(=O)[C@H](CO)NC(=O)[C@@H](NC(=O)[C@H](Cc1ccccc1)NC(=O)[C@@H](NC(=O)CNC(=O)[C@H](CCC(=O)O)NC(=O)C(C)(C)NC(=O)[C@@H](N)Cc1cnc[nH]1)[C@@H](C)O)[C@@H](C)O)C(C)C)C(=O)N[C@@H](C)C(=O)N[C@@H](Cc1c[nH]c2ccccc12)C(=O)N[C@@H](CC(C)C)C(=O)N[C@H](C(=O)N[C@@H](CCCNC(=N)N)C(=O)NCC(=O)N[C@@H](CCCNC(=N)N)C(=O)NCC(=O)O)C(C)C [Semaglutide]
- Number of mice with Aggressiveness (WT Swiss mice [1]; SC 0.5 mg/kg, cohort of 5 mice): 0
- Number of mice with Piloerection Mild (WT Swiss mice [1]; SC 0.5 mg/kg, cohort of 5 mice): 0
- Number of mice with Piloerection Severe (WT Swiss mice [1]; SC 0.5 mg/kg, cohort of 5 mice): 0
- Number of mice with Piloerection, Moderate (WT Swiss mice [1]; SC 0.5 mg/kg, cohort of 5 mice): 0
- Number of mice with Piloerection Mild (WT Swiss mice [1]; SC 3 mg/kg, cohort of 5 mice): 0
- Number of mice with Piloerection Mild (WT Swiss mice [1]; SC 10 mg/kg, cohort of 15 mice): 0
- Number of mice with Piloerection, Moderate (WT Swiss mice [1]; SC 10 mg/kg, cohort of 15 mice, time per cell footnote (¤ over 48 h)): 0
- Tolerability, both routes (SC and IP) (Lep^ob/ob mice; Lep^ob/ob obese mice): significantly impact the mice behavior and induce hypoglycemia
- Mean fasting blood glucose (Lep^ob/ob mice; female Lep^ob/ob mice, IP): 104 ± 6 mg/dL
- Number of mice showing significant aggressiveness (Lep^ob/ob mice; female Lep^ob/ob mice, IP): 3
- Mean fasting blood glucose (Lep^ob/ob mice; female Lep^ob/ob mice, SC): 97 ± 7 mg/dL
- Number of mice showing significant aggressiveness (Lep^ob/ob mice; female Lep^ob/ob mice, SC): 3
- Number of mice with Piloerection, Moderate (Lep^ob/ob mice; female Lep^ob/ob mice, SC): 3
- Mean fasting blood glucose (Lep^ob/ob mice; male Lep^ob/ob mice, IP): 111 ± 14 mg/dL
- Number of mice showing significant aggressiveness (Lep^ob/ob mice; male Lep^ob/ob mice, IP): 3
- Mean fasting blood glucose (Lep^ob/ob mice; male Lep^ob/ob mice, SC): 75 ± 12 mg/dL
- Number of mice showing significant aggressiveness (Lep^ob/ob mice; male Lep^ob/ob mice, SC): 3
- Number of mice with Piloerection, Moderate (Lep^ob/ob mice; male Lep^ob/ob mice, SC): 3
- Hypoglycemia (WT Swiss mice [2]): induce hypoglycemia
